Data on five molecules can be found in patent publication US9056108B2, “Method of treating atrial fibrillation” (Gilead Sciences, Inc., priority 2009, dated 2015).

Like-named read-outs stand apart in the source and are kept apart here.

The test system of series [1] is isolated canine coronary-perfused right atria. The series can be described thus: Electrophysiology in isolated coronary-perfused canine right atrial preparations. Conditions: in presence of ACh 1 μM, ranolazine 5 μM, dronedarone 10 μM. As to the method:
Experiments were performed using isolated coronary-perfused canine right atrial (RA) and left ventricular (LV) preparations (≈3×1.5×1 cm). Isolation and perfusion of the preparations were as previously described.^9, 15, 16 Briefly, preparations were dissected from hearts removed from anesthetized (sodium pentobarbital) adult mongrel dogs (20-30 kg). Unfolded RA with attached rim of the right ventricle was cannulated and perfused with cold cardioplegic solution (4-8° C.) through the ostium of the right coronary artery; the LV wedge was perfused through a diagonal branch of the left anterior descending coronary artery. Unperfused tissue was removed with a razor blade. Cut ventricular and atrial branches were ligated using silk thread. The preparations were then transferred to a temperature-controlled bath and arterially-perfused with Tyrode's solution by use of a roller pump. The composition of the Tyrode's solution was (in mM): NaCl 129, KCl 4, NaH2PO4 0.9, NaHCO3 20, CaCl2 1.8, MgSO4 0.5, and D-glucose 5.5, buffered with 95% O2 and 5% CO2 (37±0.5° C., pH=7.35)
Transmembrane action potential (AP) recordings were obtained using floating glass microelectrodes at a sampling rate of 40 kHz. A pseudo-electrocardiogram (ECG) was recorded using two electrodes consisting of Ag/AgCl half cells placed in the Tyrode's solution bathing the preparation, 1.0 to 1.5 cm from the two opposite sides of the atrial or ventricular coronary-perfused preparations. Conduction time was approximated by the duration of “P wave” in atria and “QRS complex” in ventricles, at a level representing 10% of “P wave” and “QRS” amplitude. Diastolic threshold of excitation (DTE) was determined by increasing stimulus intensity in 0.01 mA steps. Effective refractory period (ERP) was measured by delivering premature stimuli at progressively shorter S1-S2 intervals after every 10 basic beats at a pacing cycle length (CL) of 500 ms (5 ms steps; 2 times DTE). Post-repolarization refractoriness (PRR) was recognized when ERP exceeded action potential duration measured at 90% repolarization (APD90) in the ventricle and APD measured at 70% repolarization (APD70) in atria. Ventricular ERP was coincident with APD90, whereas atrial ERP was generally coincident with APD70-75.^9 The shortest S1-S1 permitting 1:1 activation was measured by progressively shortening pacing CL starting from a CL of 500 ms.
Stable AP recordings could not be readily obtained in the vigorously contracting perfused preparations. The largest recorded maximum rate of rise of the AP upstroke (Vmax) values per experimental condition were taken for statistical comparison. Only APs having amplitudes of at least 100 mV were considered in the analysis. The largest Vmax criterion was used because this was associated with the largest amplitude and the most negative resting membrane potential, depicting full or near full impalement. In determining use-dependent depression of Vmax, values were normalized to the Vmax value at a CL of 500 ms for each experiment and then averaged.
Because of their dependence on peak INa, Vmax, DTE, PRR, and conduction time as well the shortest S1-S1 interval permitting 1:1 activation are referred to as INa-dependent parameters.
The equilibration period for the coronary-perfused preparations was 30-120 min. The preparations were exposed to 5 μM ranolazine, 10 μM dronedarone (after 30 min washout of ranolazine), and the combination of these agents for at a period of at least 20 min. In time-control experiments, 20 minutes was sufficient to achieve steady-state in the effects of each of the drugs to alter electrophysiologic parameters. Recordings were obtained at a cycle length (CL) of 500 and 300 ms, unless otherwise indicated. […] When determining the shortest S1-S1 pacing rate permitting 1:1 activation, the stimulation intensity was DTE x 2, determined at a CL of 500 ms.

Series [2] concerns ACh-mediated persistent AF in isolated canine coronary-perfused right atria. The series can be described thus: Acetylcholine (ACh)-mediated persistent AF model in coronary-perfused right atria. To be noted: ranolazine 5 μM, dronedarone 10 μM. As to the method:
To assess the anti-AF potential of ranolazine, dronedarone, and their combination, we used an acetylcholine (ACh, 1.0 μM)-mediated AF model. In the presence of ACh, premature electrical stimulation (PES) or rapid pacing (CL=50-80 ms) induces persistent AF in 100% of canine coronary-perfused right atrial preparations.^9 The effect of the drugs was assessed to prevent (series 1) the induction of AF. In a separate set of preparations, the ability of these agents was evaluated to terminate (series 2) persistent AF. In the first series, ACh was added to the perfusate 20-30 min after the start of perfusion with 5 μM ranolazine, 10 μM dronedarone, or the combination of these agents. This was followed by attempts to induce the arrhythmia electrically. In the second series, the agents were added to the perfusate during ACh-mediated persistent AF (on the 5-6th minutes after the start of the arrhythmia). In cases in which the drug terminated AF, we attempted to re-induce the arrhythmia with rapid pacing.

Series [3] concerns rabbit isolated heart treated with acetylcholine. Kind of series: Electrically-induced atrial fibrillation in rabbit isolated heart treated with acetylcholine. As to the method:
Each rabbit was sedated using intramuscular injections of 6 mg/kg xylazine and 40 mg/kg ketamine and then anesthetized using a “cocktail” of ketamine (15 mg/kg)+xylazine (4 mg/kg) in 1.5 ml saline. The ketamine/xylazine cocktail was administered as an i.v. bolus via the marginal ear vein. After anesthesia was confirmed, the thorax was opened and the heart was quickly excised. The heart was placed in a modified Krebs-Henseleit (K-H) physiological saline solution at room temperature. The K-H solution contained (in mmol/L): NaCl 118, KCl 2.8, KH2PO4 1.2, CaCl2 2.5, MgSO4 0.5, pyruvate 2.0, glucose 5.5, Na2EDTA 0.57 and NaHCO3 25. The solution was continuously gassed with 95% O2 and 5% CO2, and its pH was adjusted to 7.4. The aorta was rapidly catheterized and the heart was perfused by the method of Langendorff with K-H solution warmed to 36-36.5° C. at a rate of 20 mL/min with a roller pump (Gilson Minipuls3, Middleton, Wis.). CPP was measured (with a Biopac MP 150 pressure transducer, Goleta, Calif.) from a side port of the aortic catheter. To facilitate exit of fluid from the chamber of the left ventricle (LV), the leaflets of the mitral valve were trimmed with fine spring-handled scissors. The right atrial wall was partially removed. […]

Series [4] has as its system female rabbit isolated heart treated with E-4031. Kind of series: Torsades de pointes in rabbit isolated heart treated with E-4031. To be noted: E-4031 60 nM. As to the method: Each rabbit was sedated using intramuscular injections of 6 mg/kg xylazine and 40 mg/kg ketamine and then anesthetized using a “cocktail” of ketamine (15 mg/kg)+xylazine (4 mg/kg) in 1.5 ml saline. The ketamine/xylazine cocktail was administered as an i.v. bolus via the marginal ear vein. After anesthesia was confirmed, the thorax was opened and the heart was quickly excised. The heart was placed in a modified Krebs-Henseleit (K-H) physiological saline solution at room temperature. […] CPP was measured (with a Biopac MP 150 pressure transducer, Goleta, Calif.) from a side port of the aortic catheter. To facilitate exit of fluid from the chamber of the left ventricle (LV), the leaflets of the mitral valve were trimmed with fine spring-handled scissors. The right atrial wall was partially removed.
Complete AV block was induced by thermo-ablation of the AV nodal area. […] A bipolar Teflon-coated electrode was placed on the right ventricular septum to pace the heart. Electrical stimuli 3 ms in width and 3-fold threshold amplitude were delivered to the pacing electrode at a frequency of 1 Hz throughout the experiments using a Grass S48 stimulator (W. Warwick, R.I.).
After initiation of ventricular pacing, a 30-40 min equilibration delay was allowed for heart rate (and CPP) to achieve a steady state, an essential experimental condition for recording a good quality monophasic action potential (MAP) recording.
Monophasic action potential (MAP) and ECG electrodes from Harvard Apparatus Inc. (Holliston, Mass.) were used to record heart rate (in beats per minute, or bpm), left ventricular MAPs and a bipolar ECG MAP electrodes were pressure contact Ag—AgCl cells attached to a circular holder with springs to keep the electrodes in contact with the LV epicardial surface. Two MAP electrodes were placed on the epicardial ventricular free wall below the level of the atrial-ventricular valves, one at the base to record a basal MAP and one at the apex to record an apical MAP. […] Signals were saved on a computer hard disk for subsequent analysis. Bipolar electrocardiograms (ECG) were generated using an isolated-heart ECG apparatus (Harvard Apparatus, Holliston, Mass.) attached to Biopac amplifier system.

For series [5], the system named is patients with AF. To be noted: DIONYSOS trial, 6 months of follow-up; cited from earlier work.
For series [6] the following is noted: cited from earlier work.
Series [7] relates to spontaneous (intrinsic) atrial rate in guinea pig isolated hearts. The series can be described thus: Spontaneous atrial rate in guinea pig isolated hearts. Conditions: verapamil 10 μM; from 225±3. The source says: To perfuse the heart by the Langendorff method, the transected aorta was slid onto a glass cannula and secured by a ligature. […] To facilitate the exit of fluid from the left ventricle, the leaflets of the mitral valve were trimmed with fine spring-handled scissors. […] Experimental interventions were always preceded and followed by control measurements.

Setting [8] is: ACh 1 μM-mediated persistent AF.

Consider `CC(=O)OCC[N+](C)(C)C` [ACh, Acetylcholine], for which, in series [1] (in ms (unit assumed)), the “Shortest S1-S1 (shortest CL permitting 1:1 activation)” value was 56 ± 7. In series [1] (pectinate muscle, CL of 500 ms), the APD90 came out at 41 ± 6 ms and the ERP was 52 ± 9 ms. In series [2] (setting [8]), the “Termination Persistent AF” value came to 0% and the “Termination Persistent AF (atria terminated/atria tested)” value was 0/10. Moreover, the “Induction of Persistent AF” value in series [2] (in presence of ACh 1 μM) came to 100%. In addition, in series [3] (S1S2 protocol, acetylcholine 0.6-1 μM, ranolazine 6 μM in presence of 0.3 μM dronedarone), the “Inducibility of AF” value worked out at 100%.

As for `Cc1cccc(CCN2CCC(C(=O)c3ccc(NS(C)(=O)=O)cc3)CC2)n1` [E-4031, N-[4-[[1-[2-(6-Methyl-2-pyridinyl)ethyl]-4-piperidinyl]carbonyl]phenyl]methanesulfonamide], in series [4] (dronedarone 10 μM), the “Occurrences of torsades de pointes (TdP) (hearts)” value is 4/6. For the same molecule, the “TdP (FIG. 18)” value in series [4] (dronedarone 0.1-0.3 μM) is “induced spontaneous and 3-sec pause-triggered episodes of TdP”. Besides, the “Incidence of TdP and EADs” value in series [4] (dronedarone 0.3-10 μM, ranolazine 6 and 10 μM) is “markedly increased the incidence of torsades de pointes”.

With `O=C(NCC1CCCCN1)c1cc(OCC(F)(F)F)ccc1OCC(F)(F)F` (stereo not shown) [Flecainide], the “Abolition of inducible AF (hearts)” value in series [3] (in presence of ACh, dronedarone 0.3 μM alone, flecainide positive control) was “abolished all episodes of AF”.

`CCCCc1oc2ccccc2c1C(=O)c1cc(I)c(OCCN(CC)CC)c(I)c1` [amiodarone]: in series [5], the “Rate of recurrence of AF” value is listed as 42%. Further, the “Patients who discontinue use due to intolerant side effects” value in series [6] (after one year) was 8-18%. For the same molecule, the Extracardiac complications entry in series [6] (first year of treatment) is recorded as “up to 15%”; in series [6] (longer term treatment), “up to 50%”.

Take `COc1ccc(CCN(C)CCCC(C#N)(c2ccc(OC)c(OC)c2)C(C)C)cc1OC` (stereo not shown) [verapamil]: in series [7], the Spontaneous atrial rate is listed as 25±24 beats/min.
